{"source": "paper PMC11661381", "about": "“Covalent-fragment screening identifies selective inhibitors of multiple Staphylococcus aureus serine hydrolases important for growth and biofilm formation” (Research Square, 2024)", "molecules": {"B1": {"name": "FphE (fluorophosphonate-binding hydrolase E), S. aureus USA300, crystallography construct (enzyme)", "chain": "GPGMETLELQGAKLRYHQVGQGPVLIFIPGANGTGDIFLPLAEQLKDHFTVVAVDRRDYGESELTEPLPDSASNPDSDYRVKRDAQDIAELAKSLSDEPVYILGSSSGSIVAMHVLKDYPEVVKKIAFHEPPINTFLPDSTYWKDKNDDIVHQILTEGLEKGMKTFGETLNIAPIDAKMMSQPADTEEGRIEQYKRTMFWLEFEIRQYTHSNITLDDFTKYSDKITLLNGTDSRGSFPQDVNFYINKETGIPIVDIPGGHLGYIQKPEGFADVLLNMWG", "notes": "also called rFphE; source: E. coli expression from pet28a-(pETNKI-his-3C-LIC-kan), purified (Ni-NTA, size exclusion); tag cleaved with 3C protease"}}, "key": {"[1]": {"biological_target": "T1, recombinant FphH (rFphH) (Staphylococcus aureus, UniProt A0A0H2XJL0)", "T1 sequence (A0A0H2XJL0 1-246)": "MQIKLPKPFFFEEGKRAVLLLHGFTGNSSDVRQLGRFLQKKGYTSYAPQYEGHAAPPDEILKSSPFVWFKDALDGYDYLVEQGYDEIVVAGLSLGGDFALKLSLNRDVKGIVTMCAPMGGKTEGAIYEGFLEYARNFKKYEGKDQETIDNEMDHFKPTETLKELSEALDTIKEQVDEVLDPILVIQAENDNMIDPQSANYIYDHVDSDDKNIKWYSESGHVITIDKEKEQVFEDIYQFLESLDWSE", "assay": "biochemical", "details": "for selectivity in the dose-dependent response assay (in words): three Fphs tested", "method": "(§1) Fluorogenic substrate assays were performed as previously described[9],[11],[12]. […] Turnover rates in the linear phase of the reaction (10–20 min) were calculated using GraphPad prism 10.0 software as RFU/min. Rates were normalized by subtracting background hydrolysis rates measured for each substrate in reaction buffer in the absence of protein.\n(§2) For the screening, 8 μL of enzyme solution was pipetted into the assay plates containing 50 nL compound and allowed to incubate for one hour at room temperature. […] For four-point dose response plates, 2.5, 10, 25, 50 nL droplets were transferred to get […], 10, 25, 50 μM compound concentrations in the 384 well plates again using an Echo acoustic liquid handler as above. […] Calculations were done with GraphPad Prism 10.0 software. […] IC50 values were derived from the fitted curve."}, "[2]": {"biological_target": "T2, recombinant FphE (rFphE) (Staphylococcus aureus, UniProt Q2FDS6)", "T2 construct": "otherwise full-length FphE (Uniprot ID Q2FDS6) and FphH (A0A0H2XJL0) proteins; His6 (3C-cleavable, pETNKI-his-3C-LIC vector) (N); made in house; E. coli is inferred from the pET28a-type vector, IPTG induction and LB/kanamycin", "T2 sequence (Q2FDS6 1-276)": "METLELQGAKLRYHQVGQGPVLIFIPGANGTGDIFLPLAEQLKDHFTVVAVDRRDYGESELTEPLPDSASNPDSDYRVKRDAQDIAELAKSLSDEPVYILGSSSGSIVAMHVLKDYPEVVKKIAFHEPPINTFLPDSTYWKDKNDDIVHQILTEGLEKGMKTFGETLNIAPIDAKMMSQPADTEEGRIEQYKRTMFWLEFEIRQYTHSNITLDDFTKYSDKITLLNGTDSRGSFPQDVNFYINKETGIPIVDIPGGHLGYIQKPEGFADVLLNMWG", "assay": "biochemical", "details": "from dose response IC50 values", "method": "as §1, §2"}, "[3]": {"system": "Fph enzymes in live S. aureus cells (USA300)", "assay": "Competition of FP-alkyne labeling in live S. aureus cells", "type": "cell-based, Staphylococcus aureus", "details": "100 μM compound, live S. aureus cells", "method": "One colony of each of S. aureus wild-type and transposon mutants fphB::Tn, fphE::Tn and fphH::Tn picked from growth on a Tryptic soya agar plate were inoculated in 5 mL of Tryptic soya broth (TSB). The overnight bacterial cultures were spun down at 5,000 g for 10 min and pellet was collected. The pellets were washed twice in 1X PBS buffer and resuspended in the same buffer. Cells were first preincubated with the indicated concentrations of inhibitors for 2hr at 37°C. The cells were washed twice with 1X PBS buffer. The resuspended pellets were incubated with Fluorophosphonate-alkyne (FP-alkyne) for 30 min at 37°C. Cells were washed again twice with 1X PBS buffer and resuspended in with 1X PBS and 0.1% Triton–X and lysed by beat beating at 4°C. Next, lysed cells (20 μL) were mixed with 2.16 μL of freshly prepared click mix (0.5 μL of 50 mM CuSO4 in H2O, 1.16 μL of 100 mM BTTAA in DMSO, and 0.5 μL of N3-Cy5 in DMSO) and 1.16 μL of 300 mM sodium ascorbate solution in H2O and incubated at 37 °C for 30 min. Next step, 20 μL of 4X SDS loading buffer was added in each sample and boiled at 100 °C for 10 min. The processed samples were allowed to cool and analyzed by SDS-PAGE (12%) running at 120 V in an electrophoresis chamber. Cy5 fluorescence was imaged using the Cy5 channel on a Typhoon 9410 Imager (Amersham Biosciences)."}, "[4]": {"assay": "Stability in aqueous assay buffer by LC/MS", "type": "physicochemical", "source_text": "This shift was not observed in the acidic mass spectrometry buffer (0.1% formic acid (FA) in H2O as buffer A, and 0.1% FA in acetonitrile (ACN) as buffer B; SI details). We therefore reasoned that the molecule likely reacts to release the fluoride under neutral pH conditions (Fig. 3c). Given the presence of the amide nitrogen in close proximity to the sulfur (VI) atom we reasoned that it likely produces a saccharine-like structure by a cyclization to release the fluorine atom[31]. This would create a molecule that could then be ring-opened by attack by the active site serine on the sulfur center, resulting in irreversible protein modification. […] We were able to purify the non-cyclized OSF-fragment, X13d under acidic conditions, as well as the cyclized OSF-fragment, X13e. We observed a clear mass difference of 20 Da between the two purified species by LC/MS analysis."}, "[5]": {"biological_target": "T3, rFphE (Staphylococcus aureus, UniProt Q2FDS6)", "T3 construct": "otherwise full-length FphE (Uniprot ID Q2FDS6) and FphH (A0A0H2XJL0) proteins; His6 (3C-cleavable, pETNKI-his-3C-LIC vector) (N); made in house; E. coli is inferred from the pET28a-type vector, IPTG induction and LB/kanamycin", "T3 sequence (Q2FDS6 1-276)": "T2 sequence (Q2FDS6 1-276)", "assay": "Mass spectrometry of rFphE labeling", "type": "binding"}, "[6]": {"system": "Fph enzymes in S. aureus USA300 WT lysates", "assay": "Competition of FP labeling in S. aureus lysates", "type": "binding, Staphylococcus aureus", "details": "120 min preincubation", "method": "Figure 3 Biochemical characterization of fluorosulfate-based fragments. […] (d) LC/MS profiles for X13d and X13e in LC/MS buffer or aqueous buffer. (e) Proposed reaction mechanism of X13d or X13e binding to rFphH, Fluorescence SDS-PAGE image of rFphH for direct visualization of labelling by clickable probes X13d and X13e with Cy5-azide. (f) Native mass spectrometry (MS) characterization of 1μM rFphH alone or after 1hr incubation with 10 μM X13d or X13e. […] (h) Competition of FP-Cy5 labeling of S. aureus lysates. […] The indicated Fph transposon mutants (::Tn) lysates are included to highlight the location of the three enzymes in the gel. All data shown are representative of three independent experiments.\nCells were then lysed and click labeled with sulfo-Cy5 azide and analyzed by SDS-PAGE. […] We hypothesized this lack of competition may have been due to the inability to permeate the cell membranes. For bacteria, the permeability is influenced by the polarity of the compound, measured by clogP. Drugs targeting Gram-negative bacteria show higher polarities (clogP = − 0.1) compared to those targeting Gram-positive bacteria (clogP = 2.1)[32],[33]. […] Overall, this electrophile has a unique mechanism of binding with the active site serine of FphH and may be a valuable new electrophile class to target other serine hydrolases."}, "[7]": {"biological_target": "T4, recombinant FphB (rFphB) (Staphylococcus aureus, UniProt A0A0H2XJG5)", "T4 construct": "made in house", "T4 sequence (A0A0H2XJG5 entry or part of it)": "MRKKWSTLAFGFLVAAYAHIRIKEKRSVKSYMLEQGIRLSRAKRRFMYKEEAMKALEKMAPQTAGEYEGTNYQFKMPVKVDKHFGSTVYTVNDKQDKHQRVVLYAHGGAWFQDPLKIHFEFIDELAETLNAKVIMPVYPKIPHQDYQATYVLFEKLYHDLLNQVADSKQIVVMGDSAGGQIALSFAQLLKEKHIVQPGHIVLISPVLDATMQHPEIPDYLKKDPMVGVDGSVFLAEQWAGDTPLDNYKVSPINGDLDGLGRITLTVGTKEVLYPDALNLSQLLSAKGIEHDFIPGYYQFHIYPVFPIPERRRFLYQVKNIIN", "type": "biochemical", "details": "enzyme inhibition assay", "method": "as §1, §2"}, "[8]": {"biological_target": "T5, rFphH (Staphylococcus aureus, UniProt A0A0H2XJL0)", "T5 construct": "otherwise full-length FphE (Uniprot ID Q2FDS6) and FphH (A0A0H2XJL0) proteins; His6 (3C-cleavable, pETNKI-his-3C-LIC vector) (N); made in house; E. coli is inferred from the pET28a-type vector, IPTG induction and LB/kanamycin", "T5 sequence (A0A0H2XJL0 1-246)": "T1 sequence (A0A0H2XJL0 1-246)", "assay": "FP-Cy5 active site labeling of recombinant protein, rFphH", "type": "binding", "details": "500 nM rFphH", "method": "For activity-based protein labeling experiments, 500 nM of rFphB, rFphE and rFphH in 1X PBS and 0.1% Triton–X were preincubated with different concentrations of inhibitors or DMSO for 2hr at room temperature, followed by adding 300 nM of fluorophosphonate (FP) alkyne and incubated for 30 min at room temperature. Next, 20 μL of the reaction volume were mixed with 2.16 μL of freshly prepared click mix (0.5 μL of 50 mM CuSO4 in H2O, 1.16 μL of 100 mM BTTAA in DMSO, and 0.5 μL of N3-Cy5 in DMSO) and 1.16 μL of 300 mM sodium ascorbate solution in H2O. Samples were incubated at 37°C for 30 min, boiled in SDS loading buffer and analyzed by SDS–PAGE. Cy5 fluorescence was imaged using the Cy5 channel on a Typhoon 9410 Imager (Amersham Biosciences)."}, "[9]": {"biological_target": "T5, rFphH", "assay": "Intact protein LC-MS of rFphH with inhibitors", "type": "binding", "details": "1 μM rFphH, 10 μM probe, 1hr", "method": "Next, 10 μL of the labeled sample was injected and analyzed by LC-MS. […] Protein labeling efficiency was quantified by UV. The acquired mass of protein was deconvoluted using the deconvolution software in Agilent Bioanalysis Software package."}, "[10]": {"biological_target": "the molecule itself", "assay": "crystal structure"}}, "data": [{"molecule": "CC1(C)OB(c2cnc3c(c2)CC(=O)N3)OC1(C)C", "note": "[AF22]", "values": [{"measurement": "selectivity in the dose-dependent response assay (in words)", "setting": "[1]", "value": "quite selective for rFphH"}]}, {"molecule": "CN1CCCN(C(=O)c2ccc(S(=O)(=O)F)cc2)c2ccccc21", "note": "[L17]", "values": [{"measurement": "IC50", "setting": "[1]; IC50 (μM) FphH, 5 nM rFphH, 1 hr preincubation, 0.01–50 μM, N.D. = IC50 could not be determined due to incomplete inhibition at the highest concentration tested", "value": 3, "unit": "µM"}]}, {"molecule": "Cc1cc(B2OC(C)(C)C(C)(C)O2)ccc1S(N)(=O)=O", "note": "[Q41]", "values": [{"measurement": "selectivity in the dose-dependent response assay (in words)", "setting": "[1]", "value": "quite selective for rFphH"}]}, {"molecule": "COc1cc(OC)cc(B(O)O)c1", "note": "[W41]", "values": [{"measurement": "selectivity for rFphE over rFphH", "setting": "[2]", "value": "~100", "unit": "fold"}, {"measurement": "competition of FP labeling in live cells (in words)", "setting": "[3]", "value": "unable to block FP labeling of any of the Fph enzymes"}]}, {"molecule": "Cc1ccc(OS(=O)(=O)F)c(C(=O)Nc2ccncc2)c1", "note": "[X13]", "values": [{"measurement": "mass shift upon incubation in aqueous buffer", "setting": "[4]; 1X Phosphate buffer saline pH 7.5, 60 min, absence of protein", "value": 20, "unit": "Da"}, {"measurement": "selectivity (higher potency) for rFphH over rFphE", "setting": "[1]; from dose response IC50 values", "value": "~100", "unit": "fold"}, {"measurement": "competition of FP labeling in live cells (in words)", "setting": "[3]", "value": "Neither of the compounds competed with FP labeling in intact cells"}, {"measurement": "labeling of rFphE by mass-spectrometry (in words)", "setting": "[5]", "value": "No labeling"}, {"measurement": "competition of FP labeling in lysates (in words)", "setting": "[6]", "value": "dose-dependently competed with FP labeling of rFphH as well as rFphE at higher concentrations"}, {"measurement": "inhibition of rFphB (in words)", "setting": "[7]", "value": "no activity against rFphB"}, {"measurement": "competition of FP-Cy5 labeling of rFphH (in words)", "setting": "[8]", "value": "dose-dependent competition of protein labeling"}]}, {"molecule": "O=C(Nc1ccncc1)c1ccccc1OS(=O)(=O)F", "note": "[X13a]", "values": [{"measurement": "competition of FP labeling in live cells (in words)", "setting": "[3]", "value": "Neither of the compounds competed with FP labeling in intact cells"}, {"measurement": "competition of FP labeling in lysates (in words)", "setting": "[6]", "value": "dose-dependently competed with FP labeling of rFphH as well as rFphE at higher concentrations"}, {"measurement": "competition of FP-Cy5 labeling of rFphH (in words)", "setting": "[8]", "value": "dose-dependent competition of protein labeling"}]}, {"molecule": "C#Cc1cnccc1NC(=O)c1ccccc1OS(=O)(=O)F", "note": "[X13d]", "values": [{"measurement": "conversion in pH 7.5 buffer (in words)", "setting": "[4]; pH 7.5 buffer", "value": "rapidly converted to the cyclic version"}, {"measurement": "mass shift of rFphH (in words)", "setting": "[9]", "value": "produced the expected mass shift"}]}, {"molecule": "C#Cc1cnccc1N1C(=O)c2ccccc2OS1(=O)=O", "note": "[X13e]", "values": [{"measurement": "mass shift of rFphH (in words)", "setting": "[9]", "value": "produced the expected mass shift"}]}, {"molecule": "B1", "values": [{"measurement": "binding result", "setting": "[10]", "value": "binds"}]}]}
